In ChEMBL document CHEMBL3046489, “Synthesis of new, potent avermectin-like insecticidal agents” (Carbohydr Res, 2005) one finds mortality, Activity and LD50 data, which are given here for 8 compounds.

Data set [1] deals with Trichoplusia ni. The experiment in a line: Insecticidal activity against Trichoplusia ni (cabbage looper) assessed as mortality after 3 days by cabbage leaf dip bioassay. In kind it is functional. More on the design: concentration or dose not given beside the values.
The subject of data set [2] is Trichoplusia ni. The experiment in a line: Insecticidal activity against Trichoplusia ni (cabbage looper) assessed as mortality after 2 days by cabbage leaf dip bioassay. It is filed as functional, organism-based.
In data set [3] the test system is Trichoplusia ni. The experiment in a line: Insecticidal activity against Trichoplusia ni (cabbage looper) assessed as mortality after 6 hr by cabbage leaf dip bioassay. In kind it is functional, organism-based.
Data set [4] is described as follows: Toxicity in Mus musculus ICR (mouse). In kind it is organism-based. The settings on record: in vivo.

Broadly, the mortality is the percentage killed. The term LD50 denotes the dose expected to kill half of the subjects tested.

Activity calls are given as the source filed them. No cut-off for these calls is given here.

Consider `CC[C@H](C)[C@H]1O[C@]2(C=C[C@@H]1C)C[C@@H]1C[C@@H](C/C=C(\C)[C@@H](O[C@H]3C[C@H](OC)[C@@H](O[C@H]4O[C@@H](C)[C@@H](O)[C@@H](O)[C@@H]4O)[C@H](C)O3)[C@@H](C)/C=C/C=C3\CO[C@@H]4[C@H](O)C(C)=C[C@@H](C(=O)O1)[C@]34O)O2`, for which the mortality in data set [1] amounted to 37%.

Turning to `CC[C@H](C)[C@H]1O[C@]2(C=C[C@@H]1C)C[C@@H]1C[C@@H](C/C=C(\C)[C@@H](O[C@H]3C[C@H](OC)[C@@H](O[C@@H]4C[C@@](C)(O)[C@@H](OC(C)=O)[C@H](C)O4)[C@H](C)O3)[C@@H](C)/C=C/C=C3\CO[C@@H]4[C@H](O)C(C)=C[C@@H](C(=O)O1)[C@]34O)O2`, the mortality in data set [1] came to 61%.

Regarding `CC[C@H](C)[C@H]1O[C@]2(C=C[C@@H]1C)C[C@@H]1C[C@@H](C/C=C(\C)[C@@H](O[C@H]3C[C@H](OC)[C@@H](O[C@H]4C[C@H](OC)[C@@H](O)[C@H](C)O4)[C@H](C)O3)[C@@H](C)/C=C/C=C3\CO[C@@H]4[C@H](O)C(C)=C[C@@H](C(=O)O1)[C@]34O)O2` [ABAMECTIN COMPONENT B1A], the result in data set [2] was Active. Also, the mortality in data set [1] was found to be 53%.

For the compound `CC[C@H](C)[C@H]1O[C@]2(C=C[C@@H]1C)C[C@@H]1C[C@@H](C/C=C(\C)[C@@H](O[C@H]3C[C@H](OC)[C@@H](O[C@@H]4C[C@@](C)(OC)[C@@H](OC)[C@H](C)O4)[C@H](C)O3)[C@@H](C)/C=C/C=C3\CO[C@@H]4[C@H](O)C(C)=C[C@@H](C(=O)O1)[C@]34O)O2`, the mortality in data set [1] is reported as 85%.

Consider `CC[C@H](C)[C@H]1O[C@]2(C=C[C@@H]1C)C[C@@H]1C[C@@H](C/C=C(\C)[C@@H](O[C@H]3C[C@H](OC)[C@@H](O[C@@H]4C[C@@H](OC)[C@@H](NC)[C@@H](C)O4)[C@H](C)O3)[C@@H](C)/C=C/C=C3\CO[C@@H]4[C@H](O)C(C)=C[C@@H](C(=O)O1)[C@]34O)O2.O=C(O)c1ccccc1`, for which the outcome in data set [2] was Active. The mortality in data set [1] was found to be 90%.

For the compound `CC[C@H](C)[C@H]1O[C@]2(C=C[C@@H]1C)C[C@@H]1C[C@@H](C/C=C(\C)[C@@H](O[C@H]3C[C@H](OC)[C@@H](O[C@@H]4C[C@@](C)(OC)[C@@H](OC(C)=O)[C@H](C)O4)[C@H](C)O3)[C@@H](C)/C=C/C=C3\CO[C@@H]4[C@H](O)C(C)=C[C@@H](C(=O)O1)[C@]34O)O2`, in data set [1], the mortality was 72%.

Regarding `CC[C@H](C)[C@H]1O[C@]2(C=C[C@@H]1C)C[C@@H]1C[C@@H](C/C=C(\C)[C@@H](O[C@H]3C[C@H](OC)[C@@H](O[C@@H]4C[C@@](C)(OC)[C@@H](O)[C@H](C)O4)[C@H](C)O3)[C@@H](C)/C=C/C=C3\CO[C@@H]4[C@H](O)C(C)=C[C@@H](C(=O)O1)[C@]34O)O2`, in data set [3], the result was Active. The same compound returned an LD50 in data set [4] of 17.5 mg/kg. The mortality in data set [1] is given as 93%.

Take `CC[C@H](C)[C@H]1O[C@]2(C=C[C@@H]1C)C[C@@H]1C[C@@H](C/C=C(\C)[C@@H](O[C@H]3C[C@H](OC)[C@@H](O[C@H]4O[C@@H](C)[C@@H](OC)[C@@H](OC)[C@@H]4OC)[C@H](C)O3)[C@@H](C)/C=C/C=C3\CO[C@@H]4[C@H](O)C(C)=C[C@@H](C(=O)O1)[C@]34O)O2`: the outcome in data set [3] was Active. Moreover, in data set [4], the LD50 came out at 87.5 mg/kg. For the same compound, the mortality in data set [1] is 93%.
